From ChEMBL document CHEMBL1201862, “PubChem BioAssay data set” (2004)
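Step 1: Grow cells in 96-well plates. Step 2: Expose to compound for 48 hours at 5 concentrations. Step 3: Interpolate endpoints linearly; if unreached, use highest concentration. GI50 marks 50% less growth.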 Active and inactive are the calls of the source. Rule as the data show it: active = GI50 up to about 1.1 µM and inactive = higher.

Key:
Assay in all cases: NCI anticancer screen, dose series, 48 h
OVCAR-8 = tested on: OVCAR-8
SR = tested on: SR
SW-620 = tested on: SW-620
K562 = tested on: K562
SF-268 = tested on: SF-268
SK-MEL-28 = tested on: SK-MEL-28
OVCAR-4 = tested on: OVCAR-4
HOP-92 = tested on: HOP-92
Malme-3M = tested on: Malme-3M
A498 = tested on: A498
EKVX = tested on: EKVX
M14 = tested on: M14
RPMI-8226 = tested on: RPMI-8226
U-251 = tested on: U-251
HOP-62 = tested on: HOP-62
NCI-H460 = tested on: NCI-H460
SNB-75 = tested on: SNB-75
COLO 205 = tested on: COLO 205
LOX IMVI = tested on: LOX IMVI
HT-29 = tested on: HT-29

Structure (SMILES)	GI50 (OVCAR-8)	GI50 (SR)	GI50 (SW-620)	GI50 (K562)	GI50 (SF-268)	GI50 (SK-MEL-28)	GI50 (OVCAR-4)	GI50 (HOP-92)	GI50 (Malme-3M)	GI50 (A498)	GI50 (EKVX)	GI50 (M14)	GI50 (RPMI-8226)	GI50 (U-251)	GI50 (HOP-62)	GI50 (NCI-H460)	GI50 (SNB-75)	GI50 (COLO 205)	GI50 (LOX IMVI)	GI50 (HT-29)
N#Cc1ccsc1Nc1ccccc1[N+](=O)[O-]	> 100 µM (inactive)	> 100 µM (inactive)	> 100 µM (inactive)	> 100 µM (inactive)	47 µM (inactive)	> 100 µM (inactive)	> 100 µM (inactive)	68.7 µM (inactive)	> 100 µM (inactive)	> 100 µM (inactive)	36.6 µM (inactive)	> 100 µM (inactive)	> 100 µM (inactive)	72.9 µM (inactive)	38.1 µM (inactive)	> 100 µM (inactive)	> 100 µM (inactive)	> 100 µM (inactive)		
O=S(=O)(Nc1ccccc1)c1ccc(-c2c3nc(c(-c4ccc(S(=O)(=O)Nc5ccccc5)cc4)c4ccc([nH]4)c(-c4ccc(S(=O)(=O)Nc5ccccc5)cc4)c4nc(c(-c5ccc(S(=O)(=O)Nc6ccccc6)cc5)c5ccc2[nH]5)C=C4)C=C3)cc1	> 31.6 µM (inactive)	> 31.6 µM (inactive)	> 31.6 µM (inactive)	> 31.6 µM (inactive)	> 31.6 µM (inactive)	> 10 µM (inactive)	12.6 µM (inactive)	12.8 µM (inactive)	> 31.6 µM (inactive)	> 31.6 µM (inactive)	> 31.6 µM (inactive)	12.6 µM (inactive)		> 31.6 µM (inactive)	> 10 µM (inactive)	11.6 µM (inactive)	11.5 µM (inactive)	> 31.6 µM (inactive)	> 10 µM (inactive)	> 31.6 µM (inactive)
C/C(Cl)=N\OC(=O)Nc1ccccc1C(F)(F)F	38.9 µM (inactive)	17.1 µM (inactive)	17.9 µM (inactive)	19 µM (inactive)	> 100 µM (inactive)	17.8 µM (inactive)	13.8 µM (inactive)	6.61 µM (inactive)	20.9 µM (inactive)	> 100 µM (inactive)	19.9 µM (inactive)		21 µM (inactive)	> 100 µM (inactive)		> 100 µM (inactive)	20.9 µM (inactive)	21.6 µM (inactive)	14.9 µM (inactive)	18.9 µM (inactive)
COc1ccc(C(C2=C(O)COC2=O)c2cc3c(cc2O)OCO3)cc1OC (configuration not stated)	> 100 µM (inactive)	> 100 µM (inactive)	> 100 µM (inactive)	> 100 µM (inactive)	> 100 µM (inactive)	> 100 µM (inactive)	> 100 µM (inactive)	> 100 µM (inactive)	> 100 µM (inactive)	> 100 µM (inactive)	> 100 µM (inactive)	> 100 µM (inactive)	> 100 µM (inactive)		> 100 µM (inactive)	> 100 µM (inactive)	> 100 µM (inactive)	> 100 µM (inactive)	> 100 µM (inactive)	> 100 µM (inactive)
CC(=O)O/N=C/c1c2ccccc2cc2ccccc12	19.1 µM (inactive)	28 µM (inactive)	50.8 µM (inactive)	85.7 µM (inactive)	61.1 µM (inactive)	89.3 µM (inactive)		> 100 µM (inactive)	47 µM (inactive)	24.9 µM (inactive)	27.5 µM (inactive)	> 100 µM (inactive)	51.6 µM (inactive)	45.6 µM (inactive)	30 µM (inactive)	51.8 µM (inactive)	22.1 µM (inactive)	> 100 µM (inactive)	> 100 µM (inactive)	57.7 µM (inactive)
Cc1cccc(C)c1NC(=O)CCC(=O)NNC(=O)c1cc(O)c2ccccc2c1	20.7 µM (inactive)	28.2 µM (inactive)	40 µM (inactive)	23 µM (inactive)	27.6 µM (inactive)	44.8 µM (inactive)		> 100 µM (inactive)	72.1 µM (inactive)	0.344 µM (active)	42.3 µM (inactive)	31.4 µM (inactive)	56.8 µM (inactive)	48.8 µM (inactive)	37.9 µM (inactive)	27.6 µM (inactive)	> 100 µM (inactive)	18.7 µM (inactive)	25.1 µM (inactive)	58.3 µM (inactive)
CCOC(=O)CNC(=O)C(C)NC(=O)C(NC(=O)CC(c1ncc[nH]1)c1ncc[nH]1)C(C)CC (configuration not stated)	> 100 µM (inactive)	> 100 µM (inactive)	> 100 µM (inactive)	> 100 µM (inactive)	> 100 µM (inactive)	> 100 µM (inactive)	63.7 µM (inactive)	> 100 µM (inactive)	> 100 µM (inactive)	> 100 µM (inactive)	> 100 µM (inactive)	84.9 µM (inactive)	> 100 µM (inactive)	> 100 µM (inactive)		> 100 µM (inactive)	> 100 µM (inactive)	> 100 µM (inactive)	> 100 µM (inactive)	
O=C1/C(=N\O)c2ccccc2S1(=O)=O	> 100 µM (inactive)	79.3 µM (inactive)	> 100 µM (inactive)	> 100 µM (inactive)	80.9 µM (inactive)		> 100 µM (inactive)	> 100 µM (inactive)	55.3 µM (inactive)	39.7 µM (inactive)		> 100 µM (inactive)	64.3 µM (inactive)	> 100 µM (inactive)	> 100 µM (inactive)	> 100 µM (inactive)	66.2 µM (inactive)	13.6 µM (inactive)	> 100 µM (inactive)	> 100 µM (inactive)
C/C(=N/NC(=O)CC(=O)N(C(=O)c1ccccc1Cl)c1ccc(C)cc1)c1cc2ccccc2oc1=O	> 100 µM (inactive)	6.11 µM (inactive)	> 100 µM (inactive)	> 100 µM (inactive)	> 100 µM (inactive)	> 100 µM (inactive)	> 100 µM (inactive)	21.5 µM (inactive)	> 100 µM (inactive)	> 100 µM (inactive)	> 100 µM (inactive)	65.3 µM (inactive)		> 100 µM (inactive)	> 100 µM (inactive)	> 100 µM (inactive)	31 µM (inactive)	> 100 µM (inactive)	73.1 µM (inactive)	> 100 µM (inactive)
Cc1cccc(C)c1NC(=O)CCc1nnc2s/c(=C\c3ccc(N(C)C)cc3)c(=O)n12	> 100 µM (inactive)	> 100 µM (inactive)	> 100 µM (inactive)	53.3 µM (inactive)	59.2 µM (inactive)	> 100 µM (inactive)	> 100 µM (inactive)	> 100 µM (inactive)	> 100 µM (inactive)	> 100 µM (inactive)		> 100 µM (inactive)	66.2 µM (inactive)	> 100 µM (inactive)	> 100 µM (inactive)	> 100 µM (inactive)	> 100 µM (inactive)	> 100 µM (inactive)	> 100 µM (inactive)	> 100 µM (inactive)
O=c1c2c3c(sc2nc2n1N=C(c1ccc([N+](=O)[O-])cc1)CS2)CCCC3	> 100 µM (inactive)	> 100 µM (inactive)	> 100 µM (inactive)	> 100 µM (inactive)	> 100 µM (inactive)	> 100 µM (inactive)	> 100 µM (inactive)	> 100 µM (inactive)	> 100 µM (inactive)	> 100 µM (inactive)	> 100 µM (inactive)		> 100 µM (inactive)	> 100 µM (inactive)	> 100 µM (inactive)	> 100 µM (inactive)	> 100 µM (inactive)	> 100 µM (inactive)	> 100 µM (inactive)	> 100 µM (inactive)
Cn1nc2ccc3nccc(N(CCO)CCO)c3c2n1	> 100 µM (inactive)	> 100 µM (inactive)	> 100 µM (inactive)	> 100 µM (inactive)	> 100 µM (inactive)	> 100 µM (inactive)		> 100 µM (inactive)	> 100 µM (inactive)	> 100 µM (inactive)	> 100 µM (inactive)	> 100 µM (inactive)	> 100 µM (inactive)	> 100 µM (inactive)	> 100 µM (inactive)	> 100 µM (inactive)	> 100 µM (inactive)	> 100 µM (inactive)	> 100 µM (inactive)	> 100 µM (inactive)
FC(F)(F)c1ccc2c(c1)N(CCCNCCN1CCOCC1)c1ccccc1S2	16.6 µM (inactive)	6.32 µM (inactive)	10.2 µM (inactive)	2.99 µM (inactive)	15.9 µM (inactive)	5.2 µM (inactive)		3.4 µM (inactive)	2.44 µM (inactive)	17.9 µM (inactive)	15 µM (inactive)	1.95 µM (inactive)	7.19 µM (inactive)	11.6 µM (inactive)	12.4 µM (inactive)	11.2 µM (inactive)	7.13 µM (inactive)	2.37 µM (inactive)	8.85 µM (inactive)	3.24 µM (inactive)
O=S(=O)(O)Nc1ccc(-c2nc3ccccc3s2)cc1Cl	> 100 µM (inactive)	> 100 µM (inactive)	> 100 µM (inactive)	> 100 µM (inactive)		> 100 µM (inactive)	> 100 µM (inactive)	> 100 µM (inactive)	> 100 µM (inactive)	> 100 µM (inactive)	> 100 µM (inactive)	> 100 µM (inactive)	> 100 µM (inactive)	> 100 µM (inactive)	> 100 µM (inactive)	> 100 µM (inactive)	> 100 µM (inactive)	> 100 µM (inactive)	> 100 µM (inactive)	> 100 µM (inactive)
